Laboratory results: patent US8912220B2 (priority 2009, dated 2014)

Molecular target: human 5-HT2C(VSV) (Homo sapiens, UniProt P28335, I156V/I160V/N158S)
Assay: cell-based

human 5-HT2C(VSV), sequence (P28335 33-458 I156V/N158S/I160V limits assumed): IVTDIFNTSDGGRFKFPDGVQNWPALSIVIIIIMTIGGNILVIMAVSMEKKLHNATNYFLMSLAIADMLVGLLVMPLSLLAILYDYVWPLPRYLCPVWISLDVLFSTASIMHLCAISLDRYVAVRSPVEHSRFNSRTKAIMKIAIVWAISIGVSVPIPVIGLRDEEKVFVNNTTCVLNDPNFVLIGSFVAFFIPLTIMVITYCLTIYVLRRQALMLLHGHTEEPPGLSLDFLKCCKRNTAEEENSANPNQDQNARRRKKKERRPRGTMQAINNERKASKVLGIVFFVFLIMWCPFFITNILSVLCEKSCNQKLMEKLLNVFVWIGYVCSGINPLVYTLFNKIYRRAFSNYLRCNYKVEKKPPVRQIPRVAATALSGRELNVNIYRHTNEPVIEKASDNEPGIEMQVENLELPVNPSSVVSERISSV

SMILES | EC50
COc1ccc(-c2ccsc2)c2c1c(CCN(C)C)cn2C [6-13, 2-(4-methoxy-1-methyl-7-(thiophen-3-yl)-1H-indol-3-yl)-N,N-dimethylethanamine] | 500 to 10000 nM
CNCCc1cn(C)c2ccc(F)c(OCCOc3ccccc3)c12 [33-14, 2-(5-fluoro-1-methyl-4-(2-phenoxyethoxy)-1H-indol-3-yl)-N-methylethanamine] | 1 to 500 nM
CCOc1c(F)ccc2c1c(CCNC1CCc3ccccc31)cn2C (stereo not shown) [30-19, N-(2-(4-ethoxy-5-fluoro-1-methyl-1H-indol-3-yl)ethyl)-2,3-dihydro-1H-inden-1-amine] | 1 to 500 nM
CCCn1cc(CCNC)c2c(OCc3ccc(F)cc3)c(F)ccc21 [33-15, 2-(5-fluoro-4-(4-fluorobenzyloxy)-1-propyl-1H-indol-3-yl)-N-methylethanamine] | 1 to 500 nM
CN(C)CCc1cn(Cc2ccco2)c2c(F)ccc(OCc3ccccc3)c12 [24-1, 2-(4-(benzyloxy)-7-fluoro-1-(furan-2-ylmethyl)-1H-indol-3-yl)-N,N-dimethylethanamine] | 1 to 500 nM
COc1ccc(CCCO)c2c1c(CCN(C)C)cn2C [25-4, 3-(3-(2-(dimethylamino)ethyl)-4-methoxy-1-methyl-1H-indol-7-yl)propan-1-ol] | 500 to 10000 nM
CCn1cc(CCN2C[C@@H](C)O[C@@H](C)C2)c2c(O)cc(F)cc21 [11-13] | 500 to 10000 nM
CNCCc1cn(C)c2ccc(F)c(OCCc3ccc(OC)cc3)c12 [33-25, 2-(5-fluoro-4-(4-methoxyphenethoxy)-1-methyl-1H-indol-3-yl)-N-methylethanamine] | 1 to 500 nM
CCn1cc(CCN(C)C)c2c(OC)cc(-c3ccccc3)cc21 [36-6, 2-(1-ethyl-4-methoxy-6-phenyl-1H-indol-3-yl)-N,N-dimethylethanamine] | 500 to 10000 nM
COc1ccc(Nc2ccccc2)c2c1c(CCN(C)C)cn2C [6-12, 3-(2-dimethylaminoethyl)-4-methoxy-1-methyl-N-phenyl-1H-indol-7-amine] | 1 to 500 nM
CCn1cc(CCNC(c2ccccc2)c2ccccc2)c2c(O)cc(F)cc21 [31-10, 3-(2-(benzhydrylamino)ethyl)-1-ethyl-6-fluoro-1H-indol-4-ol] | 1 to 500 nM
CCOc1c(F)ccc2c1c(CCNCc1ccccc1)cn2C [30-15, N-benzyl-2-(4-ethoxy-5-fluoro-1-methyl-1H-indol-3-yl)ethanamine] | 1 to 500 nM
CNCCc1cn(C)c2ccc(F)c(OCc3ccc(Cl)cc3Cl)c12 [33-48, 2-(4-(2,4-dichlorobenzyloxy)-5-fluoro-1-methyl-1H-indol-3-yl)-N-methylethanamine] | < 10000 nM
CNCCc1cn(C)c2ccc(F)c(OCc3cccc4ccccc34)c12 [33-36, 2-(5-fluoro-1-methyl-4-(naphthalen-1-ylmethoxy)-1H-indol-3-yl)-N-methylethanamine] | 1 to 500 nM
CCn1cc(CCN(C)C)c2c(OC)c(CCCO)cc(F)c21 [27-3, 3-(3-(2-(dimethylamino)ethyl)-1-ethyl-7-fluoro-4-methoxy-1H-indol-5-yl)propan-1-ol] | 1 to 500 nM
Cc1cccc(CNCCc2cn(C)c3ccc(F)c(O)c23)n1 [17-20, 5-fluoro-1-methyl-3-(2-(((6-methylpyridin-2-yl)methyl)amino)ethyl)-1H-indol-4-ol] | < 10000 nM
CNCCc1cn(C)c2ccc(F)c(OCCc3ccccc3)c12 [33-26, 2-(5-fluoro-1-methyl-4-phenethoxy-1H-indol-3-yl)-N-methylethanamine] | 1 to 500 nM
CCn1cc(CCNCCc2cccc(C(F)(F)F)c2)c2c(O)cc(F)cc21 [26-10, 1-ethyl-6-fluoro-3-(2-(3-(trifluoromethyl)phenethylamino)ethyl)-1H-indol-4-ol] | 1 to 500 nM
CCOc1c(F)ccc2c1c(CCNCc1cccc(C)c1)cn2C [30-20, 2-(4-ethoxy-5-fluoro-1-methyl-1H-indol-3-yl)-N-(3-methylbenzyl)ethanamine] | 1 to 500 nM
CCn1cc(CCN2CCCC2)c2c(O)cc(F)cc21 [11-6, 1-ethyl-6-fluoro-3-(2-(pyrrolidin-1-yl)ethyl)-1H-indol-4-ol] | 1 to 500 nM
CNCCc1cn(C)c2ccc(F)c(OCCc3ccccc3Cl)c12 [33-19, 2-(4-(2-chlorophenethoxy)-5-fluoro-1-methyl-1H-indol-3-yl)-N-methylethanamine] | 500 to 10000 nM
CNCCc1cn(C)c2c(F)cc(CCC3CCCCC3)c(OC)c12 [23-5, 2-(5-(2-cyclohexylethyl)-7-fluoro-4-methoxy-1-methyl-1H-indol-3-yl)-N-methylethanamine] | 1 to 500 nM
CNCCc1cn(C)c2ccc(F)c(OCc3ccccc3OC(F)(F)F)c12 [33-34, 2-(5-fluoro-1-methyl-4-(2-(trifluoromethoxy)benzyloxy)-1H-indol-3-yl)-N-methylethanamine] | 1 to 500 nM
COc1c(F)ccc2c1c(CCN1CCCC1C(N)=O)cn2C (stereo not shown) [17-9, 1-(2-(5-fluoro-4-methoxy-1-methyl-1H-indol-3-yl)ethyl)pyrrolidine-2-carboxamide] | 500 to 10000 nM
CCn1cc(C2CCCNC2)c2c(O)cc(F)cc21 (stereo not shown) [38-4, 1-ethyl-6-fluoro-3-(piperidin-3-yl)-1H-indol-4-ol] | 1 to 500 nM

SMILES | EC50
COc1cc(F)cc2c1c(CCN(C)C)cn2S(=O)(=O)c1ccccc1 [15-2, 2-(6-fluoro-4-methoxy-1-(phenylsulfonyl)-1H-indol-3-yl)-N,N-dimethylethan amine] | 500 to 10000 nM
CNCCc1cn(C)c2cc(F)cc(OCc3cccc(Cl)c3)c12 [33-46, 2-(4-(3-chlorobenzyloxy)-6-fluoro-1-methyl-1H-indol-3-yl)-N-methylethanamine] | 1 to 500 nM
CCOc1c(F)ccc2c1c(CCNCCc1ccc3c(c1)OCO3)cn2C [30-26, 2-(benzo[d][1,3]dioxol-5-yl)-N-(2-(4-ethoxy-5-fluoro-1-methyl-1H-indol-3-yl)ethyl)ethanamine] | 1 to 500 nM
CCn1cc(CCN(C)C)c2c(OCc3ccc(OC(F)(F)F)cc3)cc(F)cc21 [1-11b, 2-(1-ethyl-6-fluoro-4-(4-(trifluoromethoxy)benzyloxy)-1H-indol-3-yl)-N,N-dimethylethanamine] | 500 to 10000 nM
CCn1cc(CCNCc2cccc(Cl)c2)c2c(O)cc(F)cc21 [31-11, 3-(2-(3-chlorobenzylamino)ethyl)-1-ethyl-6-fluoro-1H-indol-4-ol] | 1 to 500 nM
CNCCc1cn(C)c2ccc(F)c(OCc3ccccc3-c3ccccc3)c12 [33-30, 2-(4-(biphenyl-2-ylmethoxy)-5-fluoro-1-methyl-1H-indol-3-yl)-N-methylethanamine] | 1 to 500 nM
CNCCc1cn(C)c2ccc(F)c(OCCc3ccc(F)cc3)c12 [33-28, 2-(5-fluoro-4-(4-fluorophenethoxy)-1-methyl-1H-indol-3-yl)-N-methylethanamine] | 1 to 500 nM
CNCCc1cn(C)c2ccc(F)c(OCc3ccccc3F)c12 [33-24, 2-(5-fluoro-4-(2-fluorobenzyloxy)-1-methyl-1H-indol-3-yl)-N-methylethanamine] | 1 to 500 nM
CNCCc1cn(C)c2ccc(F)c(OCc3ccc(F)cc3)c12 [33-35, 2-(5-fluoro-4-(4-fluorobenzyloxy)-1-methyl-1H-indol-3-yl)-N-methylethanamine] | 1 to 500 nM
CCn1cc(CCN(C)C)c2c(Oc3ccccc3N)ccc(F)c21 [2-3, 2-(3-(2-(dimethylamino)ethyl)-1-ethyl-7-fluoro-1H-indol-4-yloxy)aniline] | 1 to 500 nM
CCn1cc(CCN(C)Cc2ccccc2)c2c(OCc3ccccc3)cc(F)cc21 [31-6, N-benzyl-2-(4-(benzyloxy)-1-ethyl-6-fluoro-1H-indol-3-yl)-N-methylethanamine] | 1 to 500 nM
CCCn1cc(CCNCc2cccc(C)n2)c2c(O)c(F)ccc21 [17-19, 5-fluoro-3-(2-(((6-methylpyridin-2-yl)methyl)amino)ethyl)-1-propyl-1H-indol-4-ol] | < 10000 nM
CN(C)CCc1cn(C)c2ccc(F)c(OCc3cccs3)c12 [1-20a, 2-(5-fluoro-1-methyl-4-(thiophen-2-ylmethoxy)-1H-indol-3-yl)-N,N-dimethylethanamine] | 1 to 500 nM
CNCCc1cn(C)c2ccc(F)c(OCC(O)c3ccccc3Cl)c12 (stereo not shown) [33-37, 1-(2-chlorophenyl)-2-(5-fluoro-1-methyl-3-(2-(methylamino)ethyl)-1H-indol-4-yloxy)ethanol] | 1 to 500 nM
CCn1cc(CCNc2ccccc2)c2c(O)ccc(F)c21 [11-7, 1-ethyl-7-fluoro-3-(2-(phenylamino)ethyl)-1H-indol-4-ol] | 500 to 10000 nM
CCn1cc(CCN(C)C)c2c(OCc3cc(F)ccc3C)cc(F)cc21 [1-17b, 2-(1-ethyl-6-fluoro-4-(5-fluoro-2-methylbenzyloxy)-1H-indol-3-yl)-N,N-dimethylethanamine] | 1 to 500 nM
COc1ccc(S(=O)(=O)c2ccccc2)c2c1c(CCN(C)C)cn2C [25-1, 2-(4-methoxy-1-methyl-7-(phenylsulfonyl)-1H-indol-3-yl)-N,N-dimethylethanamine] | 1 to 500 nM
CCCn1cc(CCN)c2c(OCc3ccc(Cl)cc3)c(F)ccc21 [18-3, 2-(4-(4-chlorobenzyloxy)-5-fluoro-1-propyl-1H-indol-3-yl)ethanamine] | < 10000 nM
CCn1cc(CCN(C)C)c2c(OCc3cccc(C(F)(F)F)c3)cc(F)cc21 [1-16b, 2-(1-ethyl-6-fluoro-4-(3-(trifluoromethyl)benzyloxy)-1H-indol-3-yl)-N,N-dimethylethanamine] | 500 to 10000 nM
NCCc1cn(CCOc2ccccc2)c2ccc(F)c(O)c12 [19-4, 3-(2-aminoethyl)-5-fluoro-1-(2-phenoxyethyl)-1H-indol-4-ol] | 1 to 500 nM
COc1ccc(F)c2c1c(C(C)CN)cn2C (stereo not shown) [9-5, 2-(7-fluoro-4-methoxy-1-methyl-1H-indol-3-yl)propan-1-amine] | 1 to 500 nM
CCn1cc(CCN(C)C)c2c(OCc3ccc(Cl)cc3)cc(F)cc21 [1-10b, 2-(4-(4-chlorobenzyloxy)-1-ethyl-6-fluoro-1H-indol-3-yl)-N,N-dimethylethanamine] | 500 to 10000 nM
COc1ccc(-c2ccccc2)c2c1c(CCN(C)C)cn2C [6-6, 2-(4-methoxy-1-methyl-7-phenyl-1H-indol-3-yl)-N,N-dimethylethanamine] | 1 to 500 nM
COc1ccc(-c2ccc[nH]2)c2c1c(CCN(C)C)cn2C [6-10, 2-(4-methoxy-1-methyl-7-(1H-pyrrol-2-yl)-1H-indol-3-yl)-N,N-dimethylethanamine] | 500 to 10000 nM
